Our source for the GI50 and Kd values is US20250388605A1, “HETEROBIFUNCTIONAL COMPOUNDS AND METHODS OF TREATING DISEASE” (Halda Therapeutics OpCo, Inc., priority 2022, published 2025).

The test system of test [1] is T-Rex 293 cell line SC3 cells having increased expression of androgen receptor protein due to exposure to doxycycline. The test is described as follows: Cellular growth inhibition, T-Rex 293 SC3 cells with doxycycline (increased androgen receptor expression), CellTiter-Glo. The following applies: T-Rex 293 SC3 cells with 10 ng/mL doxycycline (increased androgen receptor expression), 72 hours, CellTiter-Glo 2.0. In kind it is cell-based. Put shortly: (§1)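 Doxycycline (10 ng/mL) was either included or omitted to toggle wild-type androgen receptor expression in SC3 cells, a T-Rex 293 clone, grown in stripped-serum, phenol red-free medium. After 72 hours with compound, viable cells were quantified by CellTiter-Glo 2.0.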

The subject of the next test is VCaP cells. The test is described as follows: Cellular growth inhibition assay for VCaP cells, CellTiter-Glo. In kind it is cell-based, human. Conditions: 72 hours. Summed up:
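GI50 values come from four-parameter curve fits of luminescence data normalized to a zero baseline. Compound, in medium with 0.5% DMSO, was added one day after plating and left for 72 h before CellTiter-Glo 2.0 addition.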
(In general: ATP-based viability assays read luminescence as a measure of living cells.)

A further test concerns the target T1, BRD4-BD2 (Homo sapiens, UniProt O60885).
T1 construct: made in house; host or cells: T7 phage grown in an E. coli host derived from the BL21 strain
The test is described as follows: Binding affinity to BRD4-BD2 (bromoKdELECT assay). The following applies: 11-point 3-fold dilution series. On the procedure: (§2) Compounds were tested using a bromoKdELECT assay. T7 phage strains displaying bromodomains were grown in parallel in 24-well blocks in an E. coli host derived from the BL21 strain. E. coli were grown to log-phase and infected with T7 phage from a frozen stock (multiplicity of infection=0.4) and incubated with shaking at 32° C. until lysis (90-150 minutes). The lysates were centrifuged (5,000×g) and filtered ([…]) to remove cell debris. Streptavidin-coated magnetic beads were treated with biotinylated small molecule or acetylated peptide ligands for 30 minutes at room temperature to generate affinity resins for bromodomain assays. The liganded beads were blocked with excess biotin and washed with blocking buffer (SeaBlock (Pierce), 1% BSA, 0.05% Tween 20, 1 mM DTT) to remove unbound ligand and to reduce nonspecific phage binding. Binding reactions were assembled by combining bromodomains, liganded affinity beads, and test compounds in 1× binding buffer (17% SeaBlock, 0.33×PBS, 0.04% Tween 20, 0.02% BSA, 0.004% Sodium azide, 7.4 mM DTT). Test compounds were prepared as 1000× stocks in 100% DMSO. Kds were determined using an 11-point 3-fold compound dilution series with one DMSO control point. All compounds for Kd measurements are distributed by acoustic transfer (non-contact dispensing) in 100% DMSO. The compounds were then diluted directly into the assays such that the final concentration of DMSO was 0.09%. All reactions performed in polypropylene 384-well plates. Each was a final volume of 0.02 ml. The assay plates were incubated at room temperature with shaking for 1 hour and the affinity beads were washed with wash buffer (1×PBS, 0.05% Tween 20). The beads were then resuspended in elution buffer (1×PBS, 0.05% Tween 20, 2 μM non-biotinylated affinity ligand) and incubated at room temperature with shaking for 30 minutes. The bromodomain concentration in the eluates was measured by qPCR.

Test [2] relates to T-Rex 293 cell line SC3 cells lacking increased expression of androgen receptor protein. The test is described as follows: Cellular growth inhibition, T-Rex 293 SC3 cells without doxycycline (no increased androgen receptor expression), CellTiter-Glo. Format: cell-based. Conditions: T-Rex 293 SC3 cells not exposed to doxycycline (no increased androgen receptor expression), 72 hours. Put shortly:
as §1

In a further test the target is T2, BRD4-BD1 (Homo sapiens, UniProt O60885).
T2 construct: made in house; host or cells: T7 phage grown in an E. coli host derived from the BL21 strain
The test is described as follows: Binding affinity to BRD4-BD1 (bromoKdELECT assay). The following applies: 11-point 3-fold dilution series. How it is done:
as §2, with “[…]” for “μM”

For `CCS(=O)(=O)N(C)c1ccc(Oc2cccc(OCCOC3CCN(c4ncc(C(=O)N[C@H]5C(C)(C)[C@H](Oc6ccc(C#N)c(Cl)c6)C5(C)C)cn4)CC3)c2)c(-c2cn(C)c(=O)c3[nH]ccc23)c1` [Compound I-52], the GI50 (in test [1]; in the test with VCaP cells (Homo sapiens); in test [2]) was below 0.5 µM in each case. The Kd (commonly the equilibrium constant for the complex coming apart) on BRD4-BD2 was 0.5 to 2.5 µM; on BRD4-BD1 it was above 2.5 µM.

Turning to `CCS(=O)(=O)Cc1ccc(Oc2cccc(CCCN3CCN(c4ncc(C(=O)N[C@H]5C(C)(C)[C@H](Oc6ccc(C#N)c(Cl)c6)C5(C)C)cn4)CC3)c2F)c(-c2cn(C)c(=O)c3[nH]ccc23)c1` [Compound I-144], the GI50 (in test [1]; in the test on VCaP cells; in test [2]) was below 0.5 µM in each case. The Kd on BRD4-BD2 is below 0.05 µM; on BRD4-BD1, 0.05 to 0.5 µM.

Regarding `CCS(=O)(=O)Nc1ccc(Oc2cccc(OCCOC3CCN(c4ncc(C(=O)N[C@H]5C(C)(C)[C@H](Oc6ccc(C#N)c(Cl)c6)C5(C)C)cn4)CC3)c2F)c(-c2cn(C)c(=O)c3[nH]ccc23)c1` [Compound I-64], the GI50 (in test [1]; in the test on VCaP cells (Homo sapiens); in test [2]) was below 0.5 µM in each case. Also, the Kd is below 0.05 µM at BRD4-BD2 and above 2.5 µM on BRD4-BD1.

Consider `CCS(=O)(=O)Nc1ccc(OCC(OCCOC2CCN(c3ncc(C(=O)N[C@H]4C(C)(C)[C@H](Oc5ccc(C#N)c(Cl)c5)C4(C)C)cn3)CC2)C2CC2)c(-c2cn(C)c(=O)c3[nH]ccc23)c1` (stereo partly drawn) [Compound I-68, N-((1r, 3r)-3-(3-chloro-4-cyanophenoxy)-2,2,4,4-tetramethylcyclobutyl)-2-(4-(2-(1-cyclopropyl-2-(4-(ethylsulfonamido)-2-(6-methyl-7-oxo-6,7-dihydro-1H-pyrrolo[2,3-c]pyridin-4-yl)phenoxy)ethoxy)ethoxy)piperidin-1-yl)pyrimidine-5-carboxamide], for which the values for the GI50 (in test [1]; in the test with VCaP cells (Homo sapiens); in test [2]) were below 0.5 µM, below 0.5 µM and above 3 µM, respectively. In addition, the Kd at BRD4-BD2 and on BRD4-BD1 was 0.05 to 0.5 µM each time.

As to `Cn1cc(-c2cc(NS(=O)(=O)C3CC3)ccc2Oc2cccc(OCCOC3CCN(c4ncc(C(=O)N[C@H]5C(C)(C)[C@H](Oc6ccc(C#N)c(Cl)c6)C5(C)C)cn4)CC3)c2)c2cc[nH]c2c1=O` [Compound I-48, N-((1r, 3r)-3-(3-chloro-4-cyanophenoxy)-2,2,4,4-tetramethylcyclobutyl)-2-(4-(2-(3-(4-(cyclopropanesulfonamido)-2-(6-methyl-7-oxo-6,7-dihydro-1H-pyrrolo[2,3-c]pyridin-4-yl)phenoxy)phenoxy)ethoxy)piperidin-1-yl)pyrimidine-5-carboxamide], the GI50 (as a rule, the concentration at which growth is held to half of that of the control) was below 0.5 µM in test [1], below 0.5 µM with VCaP cells (Homo sapiens) and above 3 µM in test [2]. Also, the Kd at BRD4-BD2 was 0.5 to 2.5 µM; on BRD4-BD1, above 2.5 µM.

Take `CCS(=O)(=O)Cc1ccc(Oc2cccc(OCCC3CCN(c4ncc(C(=O)N[C@H]5C(C)(C)[C@H](Oc6ccc(C#N)c(Cl)c6)C5(C)C)cn4)CC3)c2)c(-c2cn(C)c(=O)c3[nH]ccc23)c1` [Compound I-109]: the GI50 (in test [1]; with VCaP cells; in test [2]) was below 0.5 µM each time. Besides, the results for the Kd at BRD4-BD2 and at BRD4-BD1 were 0.5 to 2.5 µM and above 2.5 µM, respectively.

Regarding `CCS(=O)(=O)Cc1ccc(Oc2cccc(CCCN3CCN(c4ncc(C(=O)N[C@H]5C(C)(C)[C@H](Oc6ccc(C#N)c(Cl)c6)C5(C)C)cn4)CC3)c2)c(-c2cn(C)c(=O)c3[nH]ccc23)c1` [Compound I-133], the 50% growth inhibitory concentration (GI50) (in test [1]; in the test with VCaP cells; in test [2]) was below 0.5 µM each time. The Kd was below 0.05 µM on BRD4-BD2 and 0.05 to 0.5 µM on BRD4-BD1.

Turning to `CCS(=O)(=O)Nc1ccc(OC(COCCOC2CCN(c3ncc(C(=O)N[C@H]4C(C)(C)[C@H](Oc5ccc(C#N)c(Cl)c5)C4(C)C)cn3)CC2)C2CC2)c(-c2cn(C)c(=O)c3[nH]ccc23)c1` (stereo partly drawn) [Compound I-67], the GI50 (in test [1]; in the test on VCaP cells (Homo sapiens); in test [2]) was below 0.5 µM in each case. Moreover, the Kd on BRD4-BD2 and on BRD4-BD1 was 0.05 to 0.5 µM each time.

Take `CCS(=O)(=O)c1ccc(OC(COCCOC2CCN(c3ncc(C(=O)NC4C(C)(C)C(Oc5ccc(C#N)c(Cl)c5)C4(C)C)cn3)CC2)C2CC2)c(-c2cn(C)c(=O)c3[nH]ccc23)c1` (stereo not drawn) [Compound I-186, N-[3-(3-chloro-4-cyano-phenoxy)-2,2,4,4-tetramethyl-cyclobutyl]-2-[4-[2-[2-cyclopropyl-2-[4-ethylsulfonyl-2-(6-methyl-7-oxo-1H-pyrrolo[2,3-c]pyridin-4-yl)phenoxy]ethoxy]ethoxy]-1-piperidyl]pyrimidine-5-carboxamide]: the GI50 (in test [1]; in the test on VCaP cells (Homo sapiens); in test [2]) was below 0.5 µM each time. Further, the Kd on BRD4-BD2 and on BRD4-BD1 was 0.05 to 0.5 µM throughout.

As for `CCS(=O)(=O)c1ccc(Oc2cccc(OCCCC3CCN(c4ncc(C(=O)N[C@H]5C(C)(C)[C@H](Oc6ccc(C#N)c(Cl)c6)C5(C)C)cn4)CC3)c2F)c(-c2cn(C)c(=O)c3[nH]ccc23)c1` [Compound I-140], the GI50 was below 0.5 µM in test [1], 1.5 to 3 µM with VCaP cells (Homo sapiens) and below 0.5 µM in test [2]. The Kd on BRD4-BD2 and at BRD4-BD1 was above 2.5 µM throughout.

With `CCS(=O)(=O)Cc1ccc(Oc2cccc(OCCN3CCN(c4ncc(C(=O)N[C@H]5C(C)(C)[C@H](Oc6ccc(C#N)c(Cl)c6)C5(C)C)cn4)CC3)c2)c(-c2cn(C)c(=O)c3[nH]ccc23)c1` [Compound I-106], the GI50 (in test [1]; with VCaP cells; in test [2]) was below 0.5 µM throughout. Moreover, the Kd at BRD4-BD2 is below 0.05 µM; on BRD4-BD1, 0.05 to 0.5 µM.

As to `CCS(=O)(=O)Nc1ccc(OCC(OCCCOC2CCN(c3ncc(C(=O)N[C@H]4C(C)(C)[C@H](Oc5ccc(C#N)c(Cl)c5)C4(C)C)cn3)CC2)C2CC2)c(-c2cn(C)c(=O)c3[nH]ccc23)c1` (stereo partly drawn) [Compound I-187], the 50% growth inhibitory concentration (GI50) was below 0.5 µM in test [1], below 0.5 µM in the test on VCaP cells and above 3 µM in test [2]. The Kd lay in the range of 0.5 to 2.5 µM at BRD4-BD2 and 0.05 to 0.5 µM at BRD4-BD1.

`CCS(=O)(=O)Nc1ccc(Oc2cccc(OCCOCCOCCOCCOCCOCCOCCOC3CCN(c4ncc(C(=O)N[C@H]5C(C)(C)[C@H](Oc6ccc(C#N)c(Cl)c6)C5(C)C)cn4)CC3)c2)c(-c2cn(C)c(=O)c3[nH]ccc23)c1` [Compound I-9]: the GI50 in test [1] is below 0.5 µM; in the test on VCaP cells (Homo sapiens), below 0.5 µM; in test [2] it was 0.5 to 1.5 µM. The dissociation constant Kd on BRD4-BD2 is below 0.05 µM; at BRD4-BD1 it was 0.05 to 0.5 µM.

As to `CCS(=O)(=O)Nc1ccc(Oc2cccc(OCCCN3CCN(CCCN(C)c4ncc(C(=O)N[C@H]5C(C)(C)[C@H](Oc6ccc(C#N)c(Cl)c6)C5(C)C)cn4)CC3)c2)c(-c2cn(C)c(=O)c3[nH]ccc23)c1` [Compound I-5], the GI50 in test [1] was below 0.5 µM; in test [2], 0.5 to 1.5 µM. Also, the results for the Kd at BRD4-BD2 and on BRD4-BD1 were below 0.05 µM and 0.05 to 0.5 µM, respectively.
